This experiment has as its target GSK-3 (Homo sapiens, UniProt P49841). In words: GSK-3 inhibition, cell-free 33P-ATP peptide substrate SPA assay. The format is biochemical. The following applies: read-out: inhibitory activity against GSK-3, expressed as IC50. How it is done: The specific activity of a compound, stereoisomer, or prodrug of formula (I) in inhibiting GSK-3 can be determined in both cell-free and cell-based assays, both of which have been previously described in the relevant art. See, for example, U.S. Pat. Nos. 6,417,185 and 6,489,344, the disclosures of which are incorporated herein by reference in their entirety.
A cell-free assay can be generally carried out by incubating GSK-3 with a peptide substrate, radiolabeled ATP (e.g., for example, γ^33P- or γ^32P-ATP, both of which are available from Amersham; Arlington Heights, Ill.), magnesium ions, and the compound to be assayed. […] The amount of γ^33P or […] remaining in each well after washing is then quantified to determine the amount of radiolabeled phosphate incorporated into the peptide substrate. […]
Another example of a GSK-3 assay, similar to the one described hereinabove, is as follows: enzyme activities are assayed as the incorporation of ^33P from gamma phosphate of ^33P-ATP (Amersham; Arlington Heights, Ill.; catalog #AH-9968) into biotinylated peptide substrate PKTP-KKAKKL. […] The final concentration of ATP is 0.5 μM (final specific radioactivity of […]), and the final concentration of substrate is 0.75 μM. […] Radioactivity associated with the beads is then quantified by scintillation counting. […]

One molecule from US7300944B2, “Pyrazolo[3,4-b]pyridin-6-ones as GSK-3 inhibitors” (Pfizer Inc., priority 2003, dated 2007) can be followed below.

As a reminder, the IC50 is the concentration that inhibits the measured activity by half.

GSK-3, sequence (P49841 whole entry): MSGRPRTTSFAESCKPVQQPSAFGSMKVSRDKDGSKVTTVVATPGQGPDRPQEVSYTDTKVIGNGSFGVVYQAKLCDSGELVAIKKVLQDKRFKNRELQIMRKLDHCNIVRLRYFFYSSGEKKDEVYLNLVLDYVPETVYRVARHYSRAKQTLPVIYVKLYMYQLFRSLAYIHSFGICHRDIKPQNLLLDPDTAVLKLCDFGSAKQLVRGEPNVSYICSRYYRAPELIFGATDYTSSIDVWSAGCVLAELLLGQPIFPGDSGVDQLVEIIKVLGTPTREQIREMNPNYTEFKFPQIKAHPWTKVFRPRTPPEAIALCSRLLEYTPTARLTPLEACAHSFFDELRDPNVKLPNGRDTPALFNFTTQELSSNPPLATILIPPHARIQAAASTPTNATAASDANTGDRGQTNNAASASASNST

`COc1nccc(C2CC(=O)Nc3n[nH]c(C4CCC4)c32)n1` (stereo not shown) [Example 45, 3-Cyclobutyl-4-(2-methoxy-pyrimidin-4-yl)-2,4,5,7-tetrahydro-pyrazolo[3,4-b]pyridin-6-one]: the IC50 was determined as 6.5 nM.
